The values that follow come from patent publication US20080045537A1, “Chemical Compounds” (priority 2004, published 2008).

Read-outs that look alike come from different tables or passages of the source.

What all share (type): cell-based
In one data set the target is T1, human CXCR4 (Homo sapiens, UniProt P61073).
T1 construct: expressed in transfected cells; host or cells: HEK-293 cells (stably expressing human macrophage scavenging receptor) transduced with human CXCR4 BacMam and Gqi5 BacMam baculoviruses
T1 sequence (P61073 whole entry): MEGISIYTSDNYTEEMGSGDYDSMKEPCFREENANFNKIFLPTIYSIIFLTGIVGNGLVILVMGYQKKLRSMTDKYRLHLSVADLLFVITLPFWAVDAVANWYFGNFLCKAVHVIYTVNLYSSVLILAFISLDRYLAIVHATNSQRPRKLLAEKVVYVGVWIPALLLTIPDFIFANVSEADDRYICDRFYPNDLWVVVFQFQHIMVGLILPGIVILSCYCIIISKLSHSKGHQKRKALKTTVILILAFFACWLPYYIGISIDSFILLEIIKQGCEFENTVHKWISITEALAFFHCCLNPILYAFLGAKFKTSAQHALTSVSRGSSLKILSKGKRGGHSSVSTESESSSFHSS
Kind of data set: Functional FLIPR assay (block of SDF-1 alpha induced [Ca2+]i change). As to conditions: HEK-293 cells with human CXCR4 BacMam and Gqi5 BacMam; antagonism of SDF-1 alpha; read-out: Functional assay (pIC50) (converted). Here is the method:
Human embryonic kidney (HEK-293) cells were maintained and harvested as described above. Cells were plated in 96-well, black clear bottom, poly-lysine coated plates at a concentration of 40,000 cells per well in a final volume of 100 ul containing human CXCR4BacMam (MOI=25) and Gqi5 BacMam (MOI=12.5). The cells were incubated at 37° C., 5% CO2, 95% humidity for 24 h to allow for protein expression.
After the required incubation time the cells were washed once with 50 ul of fresh serum-free DMEM/F12 media containing probenicid. 50 ul of dye solution was then added to the cells (Calcium Plus Assay Kit Dye; Molecular Devices) was dissolved in 200 ml of the above probenicid/BSA containing media and incubated for 1 h. Cell plates were transferred to a Fluorometric Imaging Plate Reader (FLIPR). Upon addition the effect of the compounds on the change in [Ca^2+]i was examined to determine if the compounds were agonists or antagonists (ability to block SDF-1 alpha activity) at the CXCR4 receptor. IC50 values are determined and pKb values are calculated using the Leff and Dougall equation: KB=IC50/((2+([agonist]/EC50ˆb)ˆ1/b−1) Where IC50 is that defined by the antagonist concentration-response curve [agonist] is the EC80 concentration of agonist used EC50 is that defined by the agonist concentration-response curve b is the slope of the agonist concentration-response curve.

Data set [1] in a line: Compound cytotoxicity in the absence of virus addition (CellTiter-Glo). As to conditions: human; non-infected HOS cultures; read-out: Cytotox (pIC50) (converted). As to the method: Compounds were profiled against two HIV-1 viruses, the M-tropic (CCR5 utilizing) Ba-L strain and the T-tropic (CXCR4 utilizing) IIIB strain. Both viruses were propagated in human peripheral blood lymphocytes. Compounds were tested for there ability to block infection of the HOS cell line (expressing hCXCR4/hCCR5/hCD4/pHIV-LTR-luciferase) by either HIV-1 Ba-L or HIV-1 IIIB. Compound cytotoxicity was also examined in the absence of virus addition.
HOS cells (expressing hCXCR4/hCCR5/hCD4/pHIV-LTR-luciferase) were harvested and diluted in Dulbeccos modified Eagles media supplemented with 2% FCS and non-essential amino acid to a concentration of 60,000 cells/ml. The cells were plated into 96-well plates (100 ul per well) and the plates were placed in a tissue culture incubator (37° C.; 5% CO2/95% air) for a period of 24 h.
Subsequently, 50 ul of the desired drug solution (4 times the final concentration) was added to each well and the plates were returned to the tissue culture incubator (37° C.; 5% CO2/95% air) for 1 h. Following this incubation 50 ul of diluted virus was added to each well (approximately 2 million RLU per well of virus). The plates were returned to the tissue culture incubator (37° C.; 5% CO2/95% air) and were incubated for a further 96 h.
Following this incubation the endpoint for the virally infected cultures was quantified following addition of Steady-Glo Luciferase assay system reagent (Promega, Madison, Wis.). Cell viability or non-infected cultures was measured using a CellTiter-Glo luminescent cell viability assay system (Promega, Madison, Wis.). All luminescent readouts are performed on a Topcount luminescence detector (Packard, Meridien, Conn.).

The test system of data set [2] is HIV-1 gp160 (from the HXB2 HIV strain). The experiment in a line: Cell/cell fusion assay (HEK-293 expressing HIV-1 tat, rev, gp160 with HOS hCXCR4/hCCR5/hCD4/pHIV-LTR-luciferase cells). The note with it: Human immunodeficiency virus 1, HXB2, HEK293, 24 h, read-out: Fusion assay (pIC50), luciferase readout after 24 h (converted). An excerpt:
The complete coding sequences of HIV-1 tat (GenBank Accession No. X07861) and rev (GenBank Accession No. M34378) were cloned into pcDNA3.1 expression vectors containing G418 and hygromycin resistance genes, respectively. The complete coding sequence of the HIV-1 (HXB2 strain) gp160 envelope gene (nucleotide bases 6225-8795 of GenBank Accession No. K03455) was cloned into plasmid pCRII-TOPO. The three HIV genes were additionally inserted into the baculovirus shuttle vector, pFastBacMam1, under the transcriptional control of the CMV promoter. A construction of the pHIV-I LTR containing mutated NFkB sequences linked to the luciferase reporter gene was prepared by digesting pcDNA3.1, containing the G418 resistance gene, with Nru I and Bam HI to remove the CMV promoter. LTR-luc was then cloned into the Nru I/Bam HI sites of the plasmid vector. Plasmid preparations were performed after the plasmids were amplified in Escherichia coli strain DH5-alpha. The fidelity of the inserted sequences was confirmed by double-strand nucleotide sequencing using an ABI Prism Model 377 automated sequencer.
Recombinant BacMam baculoviruses were constructed from pFastBacMam shuttle plasmids by using the bacterial cell-based Bac-to-Bac system. Viruses were propagated in Sf9 (Spodoptera frugiperda) cells cultured in Hink's TNM-FH Insect media supplemented with 10% (v/v) fetal bovine serum and 0.1% (v/v) pluronic F-68 according to established protocols.
Human osteosarcoma (HOS) cells that naturally express human CXCR4 were transfected with human CCR5, human CD4 and the pHIV-LTR-luciferase plasmid using FuGENE 6 transfection reagent. Single cells were isolated and grown under selection condition in order to generate a stable HOS (hCXCR4/hCCR5/hCD4/pHIV-LTR-luciferase) clonal cell line. The cells were maintained in Dulbeccos modified Eagles media supplemented with 10% fetal calf serum (FCS), G418 (400 ug/ml), puromycin (1 ug/ml), mycophenolic acid (40 ug/ml), xanthine (250 ug/ml) and hypoxanthine (13.5 ug/ml) to maintain a selection pressure for cells expressing the LTR-luciferase, hCCR5 and hCD4, respectively. Human embryonic kidney (HEK-293) cells stably transfected to express the human macrophage scavenging receptor (Class A, type 1; GenBank Accession No. D90187), were maintained in DMEM/F-12 media (1:1) supplemented with 10% FCS and 1.5 ug/ml puromycin. The expression of this receptor by the HEK-293 cells enhances their ability to stick to tissue culture treated plasticware.
HEK-293 cells were harvested using enzyme-free cell dissociation buffer. The cells were resuspended in DMEM/F-12 media supplemented with 10% FCS and 1.5 ug/ml and counted. Tranductions were performed by direct addition of BacMam baculovirus containing insect cell media to cells. The cells were simultaneously transduced with BacMam baculovirus expressing HIV-1 tat, HIV-1 rev and HIV-1 gp160 (from the HXB2 HIV strain). Routinely an MOI of 10 of each virus was added to the media containing the cells. 2 mM butyric acid was also added to the cells at this stage to increase protein expression in transduced cells. The cells were subsequently mixed and seeded into a flask at 30 million cells per T225. The cells were incubated at 37° C., 5% CO2, 95% humidity for 24 h to allow for protein expression.
HEK and HOS cells were harvested in DMEM/F-12 media containing 2% FCS and DMEM media containing 2% FCS, respectively, with no selection agents added. Compounds were plated as 1 ul spots in 100% DMSO on a 96-well CulturPlate plates. HOS cells (50 ul) were added first to the wells, followed immediately by the HEK cells (50 ul). The final concentration of each cell type was 20,000 cells per well. Following these additions, the cells were returned to a tissue culture incubator (37° C.; 5% CO2/95% air) for an additional 24 h.
Following the 24 h incubation, total cellular luciferase activity was measured using the LucLite Plus assay kit (Packard, Meridien, Conn.). […]

In data set [3] the test system is HIV-1 IIIB (T-tropic, CXCR4 utilizing). Kind of data set: HOS HIV-1 infectivity assay. The method in brief: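 HOS cells expressing hCXCR4/hCCR5/hCD4 and an HIV-LTR-luciferase reporter, in DMEM with 2% FCS, were pre-treated with compound for 1 h, then infected with HIV-1 IIIB (~2 million RLU/well) for 96 h at 37° C. Infection was read by Steady-Glo luciferase; cytotoxicity in uninfected cultures by CellTiter-Glo.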

The mark [4] stands for this setting: Human immunodeficiency virus 1, IIIB, as determined by the infectivity assay, strain not stated in Table 2, read-out: Activity Level.
The mark [5] stands for this setting: Human immunodeficiency virus 1, HIV-1 IIIB, HOS cells, 96 h, luciferase readout, read-out: HOS (3B).

As to `CCN(Cc1nc2cccc(C(=O)NCCCCN)c2[nH]1)C1CCCc2cccnc21` (centres unmarked) [Example 16, N-(4-Aminobutyl)-2-{[ethyl(5,6,7,8-tetrahydro-8-quinolinyl)amino]methyl}-1H-benzimidazole-4-carboxamide], the IC50 on human CXCR4 was 288 nM; in data set [2], 724 nM; in data set [3] (setting [4]), 100 to 500 nM; in data set [3] (setting [5]) it was 238 nM. Besides, the IC50 at 96 h in data set [1] was more than 100000 nM.
On to `CN(Cc1nc2cc(CN)ccc2[nH]1)C1CCCc2cccnc21` (centres unmarked) [Example 17, N-{[5-(Aminomethyl)-1H-benzimidazol-2-yl]methyl}-N-methyl-5,6,7,8-tetrahydro-8-quinolinamine], for which the IC50 on human CXCR4 was 257 nM; in data set [2], 1290 nM; in data set [3] (setting [4]), 500 to 10000 nM; in data set [3] (setting [5]), 1360 nM. Further, in data set [1], the IC50 at 96 h was more than 100000 nM.
As to `CN(Cc1nc2cc(CNCCCN)ccc2[nH]1)C1CCCc2cccnc21` (centres unmarked) [Example 18, N-[(2-{[Methyl(5,6,7,8-tetrahydro-8-quinolinyl)amino]methyl}-1H-benzimidazol-5-yl)methyl]-1,3-propanediamine], the IC50 at human CXCR4 is 151 nM; in data set [2] it was 468 nM; in data set [3] (setting [4]), 100 to 500 nM; in data set [3] (setting [5]), 160 nM. For the same compound, in data set [1], the IC50 at 96 h is more than 100000 nM.
Regarding `CN(Cc1nc2cc(CNCC3CCNCC3)ccc2[nH]1)C1CCCc2cccnc21` (centres unmarked) [Example 19, N-Methyl-N-[(5-{[(4-piperidinylmethyl)amino]methyl}-1H-benzimidazol-2-yl)methyl]-5,6,7,8-tetrahydro-8-quinolinamine], the IC50 on human CXCR4 was 251 nM; in data set [2] it was 501 nM; in data set [3] (setting [4]), 100 to 500 nM; in data set [3] (setting [5]), 167 nM. Besides, in data set [1], the IC50 at 96 h was more than 100000 nM.
For `CN(Cc1nc2cc(C(=O)NCc3ccc(CN)cc3)ccc2[nH]1)C1CCCc2cccnc21` (centres unmarked) [Example 20, N-{[4-(Aminomethyl)phenyl]methyl}-2-{[methyl(5,6,7,8-tetrahydro-8-quinolinyl)amino]methyl}-1H-benzimidazole-5-carboxamide], the IC50 at human CXCR4 was more than 100000 nM; in data set [2], 5620 nM; in data set [3] (setting [4]), 500 to 10000 nM; in data set [3] (setting [5]), 2350 nM. Also, the IC50 at 96 h in data set [1] is more than 100000 nM.
Turning to `CN(Cc1nc2cccc(C(=O)N3CCNCC3)c2[nH]1)C1CCCc2cccnc21` (centres unmarked) [Example 21, N-Methyl-N-{[4-(1-piperazinylcarbonyl)-1H-benzimidazol-2-yl]methyl}-5,6,7,8-tetrahydro-8-quinolinamine], the IC50 on human CXCR4 was 15.8 nM; in data set [2] it was 60.3 nM; in data set [3] (setting [4]), less than 100 nM; in data set [3] (setting [5]), 46 nM. For the same compound, the IC50 at 96 h in data set [1] is more than 100000 nM.
For the compound `CN1CCN(C(=O)c2cccc3[nH]c(CN(C)C4CCCc5cccnc54)nc23)CC1` (centres unmarked) [Example 22, N-Methyl-N-({4-[(4-methyl-1-piperazinyl)carbonyl]-1H-benzimidazol-2-yl}methyl)-5,6,7,8-tetrahydro-8-quinolinamine], the IC50 at human CXCR4 was 170 nM; in data set [2], 1050 nM; in data set [3] (setting [4]) it was 100 to 500 nM; in data set [3] (setting [5]), 331 nM. The IC50 at 96 h in data set [1] was more than 100000 nM.
As for `CN(Cc1nc2cccc(C(=O)NCCc3cnc[nH]3)c2[nH]1)C1CCCc2cccnc21` (centres unmarked) [Example 23, N-[2-(1H-Imidazol-4-yl)ethyl]-2-{[methyl(5,6,7,8-tetrahydro-8-quinolinyl)amino]methyl}-1H-benzimidazole-4-carboxamide], the IC50 at human CXCR4 is 13.5 nM; in data set [2], 158 nM; in data set [3] (setting [4]) it was less than 100 nM; in data set [3] (setting [5]) it was 18 nM. Moreover, the IC50 at 96 h in data set [1] was more than 100000 nM.
On to `CN(Cc1nc2c(C(=O)NCCc3cn(C)cn3)cccc2[nH]1)C1CCCc2cccnc21` (centres unmarked) [Example 24, N-[2-(1-Methyl-1H-imidazol-4-yl)ethyl]-2-{[methyl(5,6,7,8-tetrahydro-8-quinolinyl)amino]methyl}-1H-benzimidazole-4-carboxamide], for which the IC50 was 12.3 nM at human CXCR4, 145 nM in data set [2], less than 100 nM in data set [3] (setting [4]) and 22 nM in data set [3] (setting [5]). The IC50 at 96 h in data set [1] is more than 100000 nM.
In the case of `CN(Cc1nc2c(C(N)=O)cccc2[nH]1)C1CCCc2cccnc21` (centres unmarked) [Example 25, 2-{[Methyl(5,6,7,8-tetrahydro-8-quinolinyl)amino]methyl}-1H-benzimidazole-4-carboxamide], the IC50 at human CXCR4 is 174 nM; in data set [2], 275 nM; in data set [3] (setting [4]), 100 to 500 nM; in data set [3] (setting [5]), 143 nM. Moreover, the IC50 at 96 h in data set [1] is more than 100000 nM.
